Assays:
[1] = biological target: T1, SpEgtUC (Streptococcus pneumoniae, UniProt A0A0H2ZQB9, Y419F); test: biochemical
T1 construct: gene egtUBC

[2] = biological target: T2, SpEgtUC (Streptococcus pneumoniae, UniProt A0A0H2ZQB9, E375Q); test: biochemical
T2 construct: gene egtUBC

[3] = biological target: T3, SpEgtUC (Streptococcus pneumoniae, UniProt A0A0H2ZQB9, F293Y); test: biochemical
T3 construct: gene egtUBC

[4] = biological target: T4, LmEgtUC (Listeria monocytogenes, UniProt Q8Y775); test: intrinsic tyrosine fluorescence titration; type: binding; settings: read-out: Ka (M^-1) (converted)
T4 construct: gene egtUBC; N-terminal His6-SUMO cleaved off; expressed in E. coli BL21(DE3); the lmo locus tag is of strain EGD-e, strain used printed as 10403S
Text: intrinsic tyrosine fluorescence titration on LmEgtUC

[5] = biological target: T5, SaEgtUC (Staphylococcus aureus, UniProt A0A0H2XK79); test: intrinsic tyrosine fluorescence titration; type: binding; settings: read-out: Ka (M^-1) (converted)
T5 construct: gene egtUBC; N-terminal His6-SUMO cleaved off; expressed in E. coli BL21(DE3)
T5 sequence (A0A0H2XK79 233-504): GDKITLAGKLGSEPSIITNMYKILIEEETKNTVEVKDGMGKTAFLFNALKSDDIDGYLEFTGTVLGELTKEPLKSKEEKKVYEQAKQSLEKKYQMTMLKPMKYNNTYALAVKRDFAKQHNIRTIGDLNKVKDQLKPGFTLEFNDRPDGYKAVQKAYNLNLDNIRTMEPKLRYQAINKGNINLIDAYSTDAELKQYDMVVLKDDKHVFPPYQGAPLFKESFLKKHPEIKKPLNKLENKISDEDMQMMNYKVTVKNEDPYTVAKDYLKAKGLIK
Text: intrinsic tyrosine fluorescence titration on SaEgtUC

[6] = biological target: T6, SpEgtUC (Streptococcus pneumoniae, UniProt A0A0H2ZQB9); test: isothermal titration calorimetry; type: binding; settings: read-out: Ka (M^-1) (converted)
T6 construct: gene egtUBC; N-terminal His6-SUMO cleaved off; expressed in E. coli BL21(DE3); monomer
Text: isothermal titration calorimetry on SpEgtUC

[7] = biological target: T7, SpEgtUC (Streptococcus pneumoniae, UniProt A0A0H2ZQB9, G244F); test: biochemical
T7 construct: gene egtUBC

[8] = biological target: T8, EfEgtUC (Enterococcus faecalis, UniProt Q837Z8); test: intrinsic tyrosine fluorescence titration; type: binding; settings: read-out: Ka (M^-1) (converted)
T8 construct: gene egtUBC; N-terminal His6-SUMO cleaved off; expressed in E. coli BL21(DE3)
T8 sequence (Q837Z8 233-505): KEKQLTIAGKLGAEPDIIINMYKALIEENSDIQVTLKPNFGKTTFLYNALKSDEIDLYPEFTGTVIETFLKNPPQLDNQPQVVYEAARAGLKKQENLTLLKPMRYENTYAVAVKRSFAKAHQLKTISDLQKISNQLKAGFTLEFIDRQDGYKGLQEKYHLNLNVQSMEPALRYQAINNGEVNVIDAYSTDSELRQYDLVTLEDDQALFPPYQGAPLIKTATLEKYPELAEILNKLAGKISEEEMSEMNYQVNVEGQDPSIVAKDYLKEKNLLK
Text: intrinsic tyrosine fluorescence titration on EfEgtUC

[9] = biological target: T9, SpEgtUCCTT (Streptococcus pneumoniae, UniProt A0A0H2ZQB9, G502V/L503C); test: biochemical
T9 construct: gene egtUBC

[10] = biological target: EgtUA (Streptococcus pneumoniae, UniProt A0A0H2ZLL3)
[11] = biological target: T6, SpEgtUC; test: NMR chemical shift perturbation titration; type: binding; settings: read-out: Ka (M^-1) (converted)
Text: NMR chemical shift perturbation titration on SpEgtUC

T6 sequence (A0A0H2ZQB9 233-506): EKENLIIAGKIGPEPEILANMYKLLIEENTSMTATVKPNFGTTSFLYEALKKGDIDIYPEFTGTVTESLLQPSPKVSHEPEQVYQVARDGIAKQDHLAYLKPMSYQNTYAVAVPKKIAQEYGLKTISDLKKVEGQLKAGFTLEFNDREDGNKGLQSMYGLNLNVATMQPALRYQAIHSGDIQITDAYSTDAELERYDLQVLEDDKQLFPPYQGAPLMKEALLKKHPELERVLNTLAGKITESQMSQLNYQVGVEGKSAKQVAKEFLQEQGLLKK
Chain of EgtUA (A0A0H2ZLL3 whole entry): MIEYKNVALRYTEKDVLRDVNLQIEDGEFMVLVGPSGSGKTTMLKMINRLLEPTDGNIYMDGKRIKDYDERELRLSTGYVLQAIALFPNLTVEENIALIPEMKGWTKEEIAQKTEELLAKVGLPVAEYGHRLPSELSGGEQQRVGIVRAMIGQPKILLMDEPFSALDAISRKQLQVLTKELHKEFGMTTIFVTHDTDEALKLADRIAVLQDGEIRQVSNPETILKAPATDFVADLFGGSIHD
T9 sequence (A0A0H2ZQB9 233-503 G502V/L503C): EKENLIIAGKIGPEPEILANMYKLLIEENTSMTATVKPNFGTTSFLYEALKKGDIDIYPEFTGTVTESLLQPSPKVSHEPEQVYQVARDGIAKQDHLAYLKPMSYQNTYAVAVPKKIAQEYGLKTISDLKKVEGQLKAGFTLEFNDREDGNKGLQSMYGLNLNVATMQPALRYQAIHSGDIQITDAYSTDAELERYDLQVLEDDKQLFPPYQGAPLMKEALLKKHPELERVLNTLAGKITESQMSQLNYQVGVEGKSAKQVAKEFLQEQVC
T4 sequence (Q8Y775 231-504): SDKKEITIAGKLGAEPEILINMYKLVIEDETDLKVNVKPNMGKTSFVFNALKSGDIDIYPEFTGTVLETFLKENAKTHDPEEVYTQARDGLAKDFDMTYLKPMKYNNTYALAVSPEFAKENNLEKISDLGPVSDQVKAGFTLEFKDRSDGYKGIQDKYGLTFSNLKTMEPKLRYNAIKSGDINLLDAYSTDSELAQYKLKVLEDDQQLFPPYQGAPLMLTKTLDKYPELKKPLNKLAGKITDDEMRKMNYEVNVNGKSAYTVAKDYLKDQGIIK
T7 sequence (A0A0H2ZQB9 233-506 G244F): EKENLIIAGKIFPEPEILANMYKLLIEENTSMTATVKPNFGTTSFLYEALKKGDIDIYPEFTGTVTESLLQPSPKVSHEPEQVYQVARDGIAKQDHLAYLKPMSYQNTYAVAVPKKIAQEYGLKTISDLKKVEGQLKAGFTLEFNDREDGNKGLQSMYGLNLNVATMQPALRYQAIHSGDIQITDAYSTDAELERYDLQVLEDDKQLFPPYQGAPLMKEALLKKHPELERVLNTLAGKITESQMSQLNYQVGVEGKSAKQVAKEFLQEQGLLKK
T3 sequence (A0A0H2ZQB9 233-506 F293Y): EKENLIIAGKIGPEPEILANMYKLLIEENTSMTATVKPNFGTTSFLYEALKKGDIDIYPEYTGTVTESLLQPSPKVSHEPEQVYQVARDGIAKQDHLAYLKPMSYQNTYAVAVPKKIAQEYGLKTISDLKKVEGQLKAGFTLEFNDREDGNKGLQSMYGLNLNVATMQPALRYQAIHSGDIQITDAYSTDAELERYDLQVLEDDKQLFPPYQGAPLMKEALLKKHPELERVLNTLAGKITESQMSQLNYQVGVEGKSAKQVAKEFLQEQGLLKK
T2 sequence (A0A0H2ZQB9 233-506 E375Q): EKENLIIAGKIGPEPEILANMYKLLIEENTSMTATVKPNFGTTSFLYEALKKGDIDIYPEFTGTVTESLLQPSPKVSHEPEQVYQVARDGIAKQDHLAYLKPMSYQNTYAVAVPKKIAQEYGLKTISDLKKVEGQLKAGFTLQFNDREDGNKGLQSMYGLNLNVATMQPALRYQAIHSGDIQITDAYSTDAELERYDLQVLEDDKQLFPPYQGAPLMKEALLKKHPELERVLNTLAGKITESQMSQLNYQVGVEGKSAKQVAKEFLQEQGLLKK
T1 sequence (A0A0H2ZQB9 233-506 Y419F): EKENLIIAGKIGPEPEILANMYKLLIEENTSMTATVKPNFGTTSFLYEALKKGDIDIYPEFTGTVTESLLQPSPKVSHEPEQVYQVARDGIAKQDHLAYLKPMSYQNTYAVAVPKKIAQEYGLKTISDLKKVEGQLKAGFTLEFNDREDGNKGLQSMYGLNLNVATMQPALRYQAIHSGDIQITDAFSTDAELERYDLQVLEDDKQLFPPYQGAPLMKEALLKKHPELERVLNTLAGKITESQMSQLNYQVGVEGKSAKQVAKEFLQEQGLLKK

In the case of `C[N+](C)(C)[C@@H](Cc1c[nH]c(=S)[nH]1)C(=O)[O-]` [ET, L-ergothioneine], the Kd [1] is reported as 0.625 µM, the Kd [2] is reported as 25 µM and the Kd [3] is reported as 0.5 µM. For the same molecule, the Kd [4] was 0.0556 µM, the Kd [5] was 0.217 µM and the Kd [6] was 0.0588 µM. For the same molecule, the Kd [7] was 5 µM, the Kd [8] was 0.0625 µM and the Kd [9] was 0.0526 µM.
With `Nc1ncnc2c1ncn2[C@@H]1O[C@H](COP(=O)(O)OP(=O)(O)OP(=O)(O)O)[C@@H](O)[C@H]1O` [ATP] the “in vitro ATPase activity” value [10] was “ATPase activity of WT vs. mutant EgtUA proteins in vitro”.
Molecule `C[N+](C)(C)CC(=O)[O-]` [GB, glycine betaine] has a Kd [11] of over 33300 µM.
Work on `C[N+](C)(C)[C@@H](Cc1cnc[nH]1)C(=O)[O-]` [HER, L-hercynine] yielded a Kd [11] of 1670 µM.

— article PMC9732360, “Discovery and structure of a widespread bacterial ABC transporter specific for ergothioneine” (Nature Communications, 2022)
